We go through seven compounds from article PMC7044433, “Combining DNMT and HDAC6 inhibitors increases anti-tumor immune signaling and decreases tumor burden in ovarian cancer” (Scientific Reports, 2020).

For one test, the system named is PD-L1. The experiment in a line: PD-L1 whole-cell protein immunoblot. Format: cell-based, human. Conditions: IGROV-1 CR and SKOV3 CR. The procedure: (§1) Cells were cultured in T75 dishes (Greiner, 658170) to form a monolayer at 80% confluency. Combination cells were treated with 500 nM 5-azacytidine (Sigma-Aldrich) once a day for 3 days or PBS once a day for 3 days. Cells were passaged on the fourth day and split into 2 flasks to be treated with Nexturastat (StarWise, LLC) or DMSO for vehicle control at the desired dose based on the cell line for the following 3 days. On the first day of Nexturastat treatment, one flask from each treatment group was stimulated with 250 ng/mL IFNγ (Peprotech, 300-02). For isogeneic ID8 murine cell lines, on the first day of HDACi treatment cell were treated with 250 ng/mL IFNγ (Peprotech, 315-05). On the seventh day, cell pellets were collected for Western Blot or flow cytometry analysis. For cycloheximide experiments, cells were treated on the seventh day of the experiment for 0, 4 or 8 hours with 10 μM cycloheximide (Sigma, C4859).
(§2) Isolated cell pellets were lysed in RIPA buffer (Pierce, 89900) with 1X protease and phosphatase inhibitor (Pierce, A32961). […] Protein concentration was determined using a Pierce BCA Protein Assay Kit (Thermo Fisher Scientific, 23225) according to the manufacturer’s protocol. […] Bands were detected using Azure Biosystems (Dublin, California, USA) Imaging System c600. […]
(Immunoblotting shows a protein as a band on a membrane.)

In test [1] the test system is MHC class I, Hey human ovarian cancer cell line. Description: MHC class I cell surface expression by flow cytometry. The note with it: Day 7, flow cytometry MFI. The class given is cell-based. On the procedure: as §1
(§3) Human ovarian cancer cells from day 7 of the protein protocol were stained for CD274 (eBioscience,12-5983-42) and MHC-I (eBioscience, 12-9983-42).
(§4) All cells were fixed after staining using Foxp3/Transcription Factor Staining Buffer Set (eBioscience, 00-5523-00) and run on a 3-laser, 12-color BD Celesta analyzer.
On the technique in general: A flow cytometer gives signals particle by particle.

Test [2] concerns MHC I, IGROV-1 CR and SKOV3 CR. The experiment in a line: MHC I surface expression in cisplatin-resistant cell lines. Format: cell-based, human. Conditions: flow cytometry. The procedure: as §1, §3, §4
The test system of test [3] is ovarian cancer cell lines. Description: CellTox Green cytotoxicity assay. Format: cell-based, human. Conditions: NextA dose chosen for each cell line, 5–10 uM. The procedure: Drug toxicity levels were measured using the CellTox Assay (Promega, G8741). Cells were seeded into a 96-well dish and treated with 500 nm 5-azacytidine and varying levels of HDACi to determine suitable dosage. Cells were treated with fluorescent dye and incubated for 4 days measuring cell death according to the manufacturer’s protocol. For longer treatments, cells were seeded in a 96-well place and treated with 500 nm 5-azacytidine for 4 days and then varying levels of HDACi. Cells were treated with a fluorescent dye on the fourth day and incubated to measure cell death. Assay measurements were collected using SpectraMax i3x multi-mode microplate reader (Molecular Devices, USA) at the recommended wavelength. For our analysis, TritonX (Sigma, 9002-93-1) was used as the positive control compound to simulate cell death on all […] read days. Results were analyzed according to manufacture recommendations.

Test [4] relates to tumor microenvironment immune cells. Description: Immunophenotyping of ascites in ID8 Trp53−/− mouse model. Format: in vivo. Conditions: first experiment, Week 7. On the procedure: Ascites and murine spleens were collected from 5 to 10 mice per group and incubated in ACK buffer (Thermo Fisher Scientific) to lyse red blood cells for 10 min and then washed. Ascites from each mouse were individually prepared for flow cytometry. The single cells collected were cultured for 4 hours in RPMI with 10% FBS and in the presence of 2 ul/ml Cell Stimulation Cocktail plus protein transport inhibitors (eBioscience, 00497503). Cells were then washed and stained for the T cell panel including: Live/Dead (Thermo Fisher Scientific, L34965), CD45 (Biolegend, 103132), CD3 (Biolegend, 152316), CD4 (Biolegend, 100453), CD8 (Biolegend, 100766), NK1.1 (Biolegend, 108753) CD 279 (Biolegend, 135205). After incubation, the cells were permeabilized (FoxP3 staining buffers; BD Bioscience, 563486). Intracellular staining was performed for FoxP3 (Biolegend, 505806) and IFN-γ (BD Bioscience, 563486).
as §4

In another test the test system is HDAC activity. The experiment in a line: HDAC-Glo assay, percent inhibition of HDAC activity in ovarian cancer cell lines. Format: cell-based, human. The procedure: HDACi enzymatic function was measured using HDACglo class I/IIa Assay (Promega, G6420). Cells were seeded in a 96-well dish and treated with 500 nM 5-azacytidine and varying levels of HDACi to determine appropriate HDACi dosage. Assay measurements were collected using SpectraMax i3x multi-mode microplate reader (Molecular Devices, USA) at the recommended wavelength. […], Givinostat, and Panobinostat (SelleckChem) were used to compare enzymatic inhibition levels of Nexturastat in each cell line. Results were analyzed according to manufacturer recommendations.

Test [5] deals with MHC class I, ID8 Trp53−/− mouse ovarian cancer cell line. Description: MHC class I cell surface expression by flow cytometry. Conditions: Day 7, flow cytometry MFI. The class given is cell-based. On the procedure:
as §1
Murine ovarian cancer cell lines from day 7 of the protein protocol were stained for PD-L1/CD274 (BD Bioscience, 558091), PD-L2/CD273 (Biolegend, 107214), MHC-I (Invitrogen, 17-5958-82), and MHC-II (Invitrogen 56-5321-82).
as §4

The next test relates to MOSE ID8 Trp53−/−. The experiment in a line: qRT-PCR of interferon stimulated genes and cytokines. Format: cell-based, mouse. The note with it: Day 7, 500 nM Aza then NextA, fold change relative to Mock. On the procedure:
(§5) Cells were cultured in T75 dishes to form a monolayer at 80% confluency. Combination cells were treated with 500 nM 5-azacytidine or PBS for 3 days. Cells were passaged on the fourth day and split into 2 flasks to be treated with Nexturastat or vehicle at the desired dose based on the cell line for the following 3 days. On the last day of HDACi treatment, one flask from each treatment group was stimulated with 250 ng/mL IFNγ (Peprotech, 300-02) for 4 hours. For isogeneic ID8 murine cell lines, cell were stimulated with 250 ng/mL […] (Peprotech, 315-05) for 4 hours. On the seventh day cell pellets were collected for qPCR analysis.
Total RNA was extracted using the TRIzol method (Life Technologies). RNA concentration was determined using the Thermo Scientific NanoDrop One machine and software (Thermo Scientific, 840274100PR2). […] All RT-qPCRs were run on the Applied Biosystems Quantstudio3 Real-Time PCR System, 96-well plate reader (Applied Biosystems, A28137) and using TaqMan assay Gene Expression Array (Thermo Fisher Scientific, 4331182) in human for OASL, IFI44L, IFNb1, CXCL10, CCL2, CCL5, IFI27, CD247, DNMT1, DNMT3a, DNMT3b and in mouse (Thermo Fisher Scientific, 4331182) for OASL, IFI44L, IFNb1, CXCL10, CCL2, CCL5, IFI27, and CD247. […]
In general terms: Quantitative PCR measures a nucleic acid by following its amplification.

Test [6] relates to ID8 Trp53−/− ovarian cancer. Description: ID8 Trp53−/− mouse model of ovarian cancer, survival and tumor burden. The note with it: first experiment; for survival: i.p. Aza 0.5 mg/kg, NextA 25 mg/kg, 5 days a week, combination on alternating weeks, vs Mock.
A further test relates to Kuramochi. The experiment in a line: qRT-PCR of interferon stimulated genes and cytokines. The class given is cell-based, human. Conditions: Day 7, seven genes. On the procedure:
as §5
(§6) Total RNA was extracted using the TRIzol method (Life Technologies). RNA concentration was determined using the Thermo Scientific NanoDrop One machine and software (Thermo Scientific, 840274100PR2). One microgram total RNA was DNAse I (Thermo Scientific) treated and used to generate cDNA with the Applied Biosystems High-Capacity cDNA Reverse Transcriptase Kit (Applied Biosystems, 4368814). All RT-qPCRs were run on the Applied Biosystems Quantstudio3 Real-Time PCR System, 96-well plate reader (Applied Biosystems, A28137) and using TaqMan assay Gene Expression Array (Thermo Fisher Scientific, 4331182) in human for OASL, IFI44L, IFNb1, CXCL10, CCL2, CCL5, IFI27, CD247, DNMT1, DNMT3a, DNMT3b and in mouse (Thermo Fisher Scientific, 4331182) for OASL, IFI44L, IFNb1, CXCL10, CCL2, CCL5, IFI27, and CD247. TBP was used as a housekeeping gene for both human and murine cell lines. The ΔΔCt method was used to calculate relative expression levels. Reverse transcriptase negative cDNA synthesis reaction was performed on at least one sample per 96-well plate along with a water control to ensure accurate results.

The subject of test [7] is SKOV3 CR. The description is as above. The note with it: Day 7. Format: cell-based, human. The procedure:
as §5, §6

The subject of a further test is A2780. Described as above. The class given is cell-based, human. The note with it: A2780, Day 7, 500 nM Aza then NextA, fold change relative to Mock. The procedure:
as §5, §6

The next test deals with Hey. The test is described as above. Format: cell-based, human. Conditions: Day 7, 500 nM Aza then NextA, fold change relative to Mock. The procedure: as §5, §6
In a further test the test system is DNMT1 protein. Description: DNMT1 immunoblot in ovarian cancer cell lines. Conditions: Day 7. Format: cell-based, human. The procedure: as §1, §2
For another test, the system named is TykNu. Description: qRT-PCR of interferon stimulated genes and cytokines. The class given is cell-based, human. The note with it: Day 7, seven genes. On the procedure: as §5, §6
Test [8] relates to SKOV3 CR. On the set-up: method as in PMID 29662190. The note with it: read-out: cisplatin IC50; cited from earlier work.
Another test deals with IGROV-1 CR. On the set-up: method as in PMID 29662190. The note with it: read-out: cisplatin IC50; cited from earlier work.
Test [9] deals with ARID1A mutated ovarian clear cell carcinoma. The note with it: mice with ARID1A mutated ovarian clear cell carcinoma; cited from earlier work.
[10] abbreviates: low doses (250–500 nM), positive controls.

On to `CCCCN(Cc1ccc(C(=O)NO)cc1)C(=O)Nc1ccccc1` [NextA, Nexturastat A], for which the “total PD-L1 protein” value in the test with PD-L1 is reported as “decrease of total PD-L1 protein”. The “MHC class I cell surface expression” value in [1] and in test [5] was “upregulated” each time. Also, the “MHC I expression” value in test [2] is “increase in MHC I expression”. For the same compound, in test [3], the cell death result is listed as “no more than 20%”. In addition, the “activated NK cells in ascites” value in test [4] is “favoring the presence of activated NK cells”. The “inhibition of HDAC activity” value with HDAC activity (5 and 10 uM) is on record as 60–80%. Further, the “expression of cytokines and interferon genes” value in the test with MOSE ID8 Trp53−/− is “significantly increased”; with Kuramochi, “some upregulation”; in the test on SKOV3 CR [7], “upregulated CCL2 and OASL genes”; in the test on A2780 it was “significantly increased”; in the test on Hey it was “significantly increased”. In addition, the survival entry in test [6] was “did not”.

As for `Cc1[nH]c2ccccc2c1CCNCc1ccc(/C=C/C(=O)NO)cc1` [LBH], in the test on HDAC activity (setting [10]), the “inhibition of HDAC activity” value is reported as 100%.

On to `Nc1ncn([C@@H]2O[C@H](CO)[C@@H](O)[C@H]2O)c(=O)n1` [Aza, 5-azacytidine], for which the DNMT1 protein expression result in the test with DNMT1 protein is reported as “degrades the DNMT1 protein”. Further, in test [4], the “M1 macrophages in ascites” value was “increase in M1 macrophages”. Besides, the “expression of cytokines and interferon genes” value with MOSE ID8 Trp53−/− is “significantly increased”; in the test with TykNu it was “significant increases”; with Kuramochi, “some upregulation”; in the test on SKOV3 CR [7], “upregulated CCL2 and OASL genes”; in the test on A2780 it was “significantly increased”; in the test on Hey it was “significantly increased”. For the same compound, the “ascites volume (tumor burden)” value in [6] (Week 7) is listed as “decreased ascites volume”. Besides, in [6], the survival entry is on record as “significantly increased survival”.

As for `N.N.[Cl][Pt][Cl]` [cisplatin], the figures for the IC50 in the test on SKOV3 CR [8] and in the test on IGROV-1 CR were 10.4 µM and 1500 nM, respectively.

In the case of `O=C(CCCCCCNC(=O)c1cnc(N(c2ccccc2)c2ccccc2)nc1)NO` [ACY1215], in test [9], the survival entry is reported as “improved survival”.

With `CC(/C=C/C(=O)NO)=C\[C@@H](C)C(=O)c1ccc(N(C)C)cc1` [TSA], the “inhibition of HDAC activity” value with HDAC activity (setting [10]) is recorded as 100%.

As to `CCN(CC)Cc1ccc2cc(COC(=O)Nc3ccc(C(=O)NO)cc3)ccc2c1` [Givinostat], the “inhibition of HDAC activity” value in the test on HDAC activity (setting [10]) is on record as 100%.

Usually IC50 stands for the concentration needed to halve the response being measured.
